Measurements published in US12129265B2, “Therapeutic agents and uses thereof” (Ankh Life Sciences Limited, priority 2020, dated 2024).

Tests used:
Assay in all cases: CellTiter-Glo in vitro cell proliferation assay, Example 8
Format in all cases: cell-based, Human
RPMI-8226 cells = conditions: RPMI-8226, HMM
Method: (§1) Each proliferation assay was carried out as follows. The test cells were plated in growth media using a 384-well microtiter plate at 50 μL volume. The cells were incubated for 24 hours at 37° C. in a humidified incubator. After 24 hours of incubation, the test compounds were added to the test wells in DSMO solvent, at concentrations ranging from 0.0075-100 μM. Control wells received equal volumes of DSMO, without compound. Following drugging, the cells were incubated for 72 hours at 37° C. in a humidified incubator. After this exposure, 100 μL of a 1:1 mixture of sterile water and CellTiter-Glo® reagent (Promega) was added to each well. The plates were then incubated for 60 minutes at room temperature, followed by recording the luminescence value of each well using a luminometer as a measure of cell proliferation.
In this example, different cell lines were subjected to in vitro cell proliferation assays as described in Example 8. In particular, the cell lines are identified in the following Table 17, and the tissue types were: Pancreatic; Endometrial; Triple-Negative Breast Cancer (TNBC); Non-Small-Cell Lung Carcinoma (NSCLC); Ovarian; Renal Cell Carcinoma (RCC); Cervical-Squamous Cell; […] (H&N-Squamous Cell); Germinal Center B Cell-Like Novo Diffuse Large B-Cell Lymphoma (GCB-DLBCL); Activated B-Cell—Diffuse Large B Cell Lymphoma (ABC-DLBCL); Human Myeloma; Human Myeloma Cell Line Lymphocyte-Like; Human Myeloma Cell Line Lymphocyte-Like Myeloma Pleural Effusion Infiltration; Human Multiple Myeloma; Plasma Cell Leukemia/Multiple Myeloma Epstein-Barr Nuclear Antigen-Negative (EBNA-Negative) and to Express mRNA for Proto-Oncogene B-Cell Lymphoma 2 (BCL2); Multiple Myeloma from Peripheral Blood Type IgD Lmabda.

H1650 (EGFR mut) cells = conditions: NSCLC, read-out: Mean IC50
Method: (§2) In this Example, in vitro cell proliferation assays were performed using: (1) Human Myeloma tumor cell lines; (2) Human Lymphoma tumor cell lines; (3) Solid Human tumor cell lines; and (4) Parental, Lenalidomide resistant and Bortezomib resistant Jeko-1 Mantle cell Lymphoma tumor cell lines. The compounds tested were three diharmaline compounds, namely the 518B562 (or simply 562), 560, and 561 compounds. In addition, a monoharmaline product designated as 518F014 was also tested. This monoharmaline product had the following structure:
as §1

HEC-1a cells = conditions: Endometrial, read-out: Mean IC50
Method: as §2, §1

FaDu cells = conditions: H&N - SC, read-out: Mean IC50
Method: as §2, §1

KMS-34 cells = conditions: KMS-34, HMCL-B; read-out: Mean IC50
Method: as §2, §1

HCC70 cells = conditions: HCC70, TNBC; read-out: Mean IC50
Method: as §2, §1

DOHH-2 cells = conditions: DoHH-2, GCB-DLBCL; read-out: Mean IC50
Method: as §2, §1

OCI-LY3 cells = conditions: OCI-LY3, ABC-DLBCL; read-out: Mean IC50
Method: as §2, §1

A2780CP cells = conditions: Ovarian, read-out: Mean IC50
Method: as §2, §1

MOLP-8 cells = conditions: MOLP-8, MM IgD; read-out: Mean IC50
Method: as §2, §1

JIM1 cells = conditions: JIM1, HMCL; read-out: Mean IC50
Method: as §2, §1

A2780 cells = conditions: A2780, Ovarian; read-out: Mean IC50
Method: as §2, §1

AN3CA cells = conditions: Endometrial, read-out: Mean IC50
Method: as §2, §1

ASPC-1 cells = conditions: ASPC-1, Pancreatic; read-out: Mean IC50
Method: as §2, §1

MIA PaCa-2 cells = conditions: MIA PaCa-2, Pancreatic; read-out: Mean IC50
Method: as §2, §1

A498 cells = conditions: A498, RCC; read-out: Mean IC50
Method: as §2, §1

H1975 (EGFR mut) cells = conditions: NSCLC, read-out: Mean IC50
Method: as §2, §1

KMM-1 cells = conditions: KMM-1, HMCL-A; read-out: Mean IC50
Method: as §2, §1

MDA-MB-468 cells = conditions: MDA-MB-468, TNBC; read-out: Mean IC50
Method: as §2, §1

MDA-MB-231 cells = conditions: MDA-MB-231, TNBC; read-out: Mean IC50
Method: as §2, §1

L363 cells = conditions: L363, PCL/MM; read-out: Mean IC50
Method: as §2, §1

BxPC-3 cells = conditions: BxPC-3, Pancreatic; read-out: Mean IC50
Method: as §2, §1

SiHA cells = conditions: Cervical - SC, read-out: Mean IC50
Method: as §2, §1

Structure (SMILES): COc1ccc2c3c([nH]c2c1)C(CC(CC1=NCCc2c1[nH]c1cc(OC)ccc21)c1ccc(OC)c(Oc2ccccc2)c1)=NCC3 [compound 10]
- IC50 (RPMI-8226 cells): 3.98 µM
- IC50 (H1650 (EGFR mut) cells): 13.3 µM
- IC50 (HEC-1a cells): 88.1 µM
- IC50 (FaDu cells): 49.7 µM
- IC50 (KMS-34 cells): 4.87 µM
- IC50 (HCC70 cells): 50.2 µM
- IC50 (DOHH-2 cells): 2.78 µM
- IC50 (OCI-LY3 cells): 7.57 µM
- IC50 (A2780CP cells): 29.4 µM
- IC50 (MOLP-8 cells): 8.28 µM
- IC50 (JIM1 cells): 20.1 µM
- IC50 (A2780 cells): 65 µM
- IC50 (AN3CA cells): 31.7 µM
- IC50 (ASPC-1 cells): 23.8 µM
- IC50 (MIA PaCa-2 cells): 11.9 µM
- IC50 (A498 cells): 79.2 µM
- IC50 (H1975 (EGFR mut) cells): 64 µM
- IC50 (KMM-1 cells): 11.1 µM
- IC50 (MDA-MB-468 cells): 11.4 µM
- IC50 (MDA-MB-231 cells): 43.7 µM
- IC50 (L363 cells): 35.6 µM
- IC50 (BxPC-3 cells): 27.6 µM

Structure (SMILES): COc1ccc2c3c([nH]c2c1)C(CC(CC1=NCCc2c1[nH]c1cc(OC)ccc21)c1ccc(OC)c(O)c1Br)=NCC3 [compound 13]
- IC50 (RPMI-8226 cells): 9.1 µM
- IC50 (H1650 (EGFR mut) cells): 21.2 µM
- IC50 (HEC-1a cells): 17.4 µM
- IC50 (FaDu cells): 13.5 µM
- IC50 (KMS-34 cells): 11.1 µM
- IC50 (HCC70 cells): 28.5 µM
- IC50 (DOHH-2 cells): 6.52 µM
- IC50 (OCI-LY3 cells): 11.7 µM
- IC50 (A2780CP cells): 23.4 µM
- IC50 (MOLP-8 cells): 11 µM
- IC50 (JIM1 cells): 11.5 µM
- IC50 (A2780 cells): 11.8 µM
- IC50 (AN3CA cells): 7.82 µM
- IC50 (ASPC-1 cells): 82.5 µM
- IC50 (MIA PaCa-2 cells): 15.8 µM
- IC50 (A498 cells): 91.6 µM
- IC50 (H1975 (EGFR mut) cells): 14 µM
- IC50 (KMM-1 cells): 13.1 µM
- IC50 (MDA-MB-468 cells): 12.6 µM
- IC50 (MDA-MB-231 cells): 25.8 µM
- IC50 (L363 cells): 12.9 µM
- IC50 (BxPC-3 cells): 16.6 µM

Structure (SMILES): COc1ccc2c3c([nH]c2c1)C(CC(CC1=NCCc2c1[nH]c1cc(OC)ccc21)c1cccc(-c2ccccc2)c1)=NCC3 [compound 18]
- IC50 (RPMI-8226 cells): 12.3 µM
- IC50 (H1650 (EGFR mut) cells): 45.4 µM
- IC50 (HEC-1a cells): 49.8 µM
- IC50 (FaDu cells): 49.2 µM
- IC50 (KMS-34 cells): 17.8 µM
- IC50 (HCC70 cells): 36.3 µM
- IC50 (DOHH-2 cells): 8.55 µM
- IC50 (OCI-LY3 cells): 25 µM
- IC50 (A2780CP cells): 31.2 µM
- IC50 (MOLP-8 cells): 12.2 µM
- IC50 (JIM1 cells): 39.8 µM
- IC50 (A2780 cells): 26.3 µM
- IC50 (AN3CA cells): 28.8 µM
- IC50 (ASPC-1 cells): 43.8 µM
- IC50 (MIA PaCa-2 cells): 32.5 µM
- IC50 (A498 cells): 93.4 µM
- IC50 (H1975 (EGFR mut) cells): 59.1 µM
- IC50 (KMM-1 cells): 33.6 µM
- IC50 (MDA-MB-468 cells): 48.7 µM
- IC50 (MDA-MB-231 cells): 43.9 µM
- IC50 (L363 cells): 34.8 µM
- IC50 (BxPC-3 cells): 36.2 µM

Structure (SMILES): C=C(C)C1CC=C(C(CC2=NCCc3c2[nH]c2cc(OC)ccc32)CC2=NCCc3c2[nH]c2cc(OC)ccc32)CC1 (stereo not drawn) [compound 28]
- IC50 (RPMI-8226 cells): 3.5 µM
- IC50 (H1650 (EGFR mut) cells): 11.3 µM
- IC50 (HEC-1a cells): 10.6 µM
- IC50 (FaDu cells): 5.64 µM
- IC50 (KMS-34 cells): 4.44 µM
- IC50 (HCC70 cells): 11.9 µM
- IC50 (DOHH-2 cells): 2.5 µM
- IC50 (OCI-LY3 cells): 6.17 µM
- IC50 (A2780CP cells): 7.02 µM
- IC50 (MOLP-8 cells): 3.71 µM
- IC50 (SiHA cells): 13.3 µM
- IC50 (JIM1 cells): 8.08 µM
- IC50 (AN3CA cells): 4.49 µM
- IC50 (ASPC-1 cells): 7.22 µM
- IC50 (MIA PaCa-2 cells): 4.51 µM
- IC50 (A498 cells): 16.3 µM
- IC50 (KMM-1 cells): 6.43 µM
- IC50 (MDA-MB-468 cells): 8.43 µM
- IC50 (MDA-MB-231 cells): 10.1 µM
- IC50 (L363 cells): 4.75 µM
- IC50 (BxPC-3 cells): 6.58 µM

Structure (SMILES): COc1ccc2c3c([nH]c2c1)C(CC(CC1=NCCc2c1[nH]c1cc(OC)ccc21)c1ccc(C(C)C)cc1)=NCC3 [compound 29]
- IC50 (RPMI-8226 cells): 4.44 µM
- IC50 (H1650 (EGFR mut) cells): 13.9 µM
- IC50 (FaDu cells): 11.4 µM
- IC50 (KMS-34 cells): 4.4 µM
- IC50 (HCC70 cells): 40 µM
- IC50 (DOHH-2 cells): 2.09 µM
- IC50 (OCI-LY3 cells): 9.63 µM
- IC50 (A2780CP cells): 11.5 µM
- IC50 (MOLP-8 cells): 5.89 µM
- IC50 (SiHA cells): 46.9 µM
- IC50 (JIM1 cells): 16.6 µM
- IC50 (A2780 cells): 12.1 µM
- IC50 (AN3CA cells): 8.07 µM
- IC50 (ASPC-1 cells): 10.8 µM
- IC50 (MIA PaCa-2 cells): 11.3 µM
- IC50 (A498 cells): 42.5 µM
- IC50 (H1975 (EGFR mut) cells): 13.6 µM
- IC50 (KMM-1 cells): 7.71 µM
- IC50 (MDA-MB-231 cells): 13.9 µM
- IC50 (L363 cells): 11.4 µM
- IC50 (BxPC-3 cells): 11.5 µM
